In the supplement of paper PMC10307832:

Key:
Assay in all cases: relative viability (nuclei count vs DMSO), 5 days (fraction); higher = more cells survive
Linifanib + Dasatinib = compound: Cc1ccc(F)c(NC(=O)Nc2ccc(-c3cccc4[nH]nc(N)c34)cc2)c1 [Linifanib] + Cc1nc(Nc2ncc(C(=O)Nc3c(C)cccc3Cl)s2)cc(N2CCN(CCO)CC2)n1 [Dasatinib] (partner 0.075 µM)
How it was run: (§1)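 Lung cancer cell lines, seeded in 1536-well plates, were treated the following day by pin tool with a single drug or with five library-drug doses (not always all listed) in √10 steps on top of a fixed anchor-drug dose. Cells were fixed and nuclei stained in one step after 5 days, and nuclei were counted. Relative viability is the nuclei count for treated wells divided by that for vehicle wells, reported as medians of duplicate plates.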

Linifanib + Navitoclax = compound: Cc1ccc(F)c(NC(=O)Nc2ccc(-c3cccc4[nH]nc(N)c34)cc2)c1 [Linifanib] + CC1(C)CCC(c2ccc(Cl)cc2)=C(CN2CCN(c3ccc(C(=O)NS(=O)(=O)c4ccc(N[C@H](CCN5CCOCC5)CSc5ccccc5)c(S(=O)(=O)C(F)(F)F)c4)cc3)CC2)C1 [Navitoclax] (partner 0.5 µM)
How it was run: as §1

Linifanib + Pemetrexed = compound: Cc1ccc(F)c(NC(=O)Nc2ccc(-c3cccc4[nH]nc(N)c34)cc2)c1 [Linifanib] + Nc1nc2[nH]cc(CCc3ccc(C(=O)N[C@@H](CCC(=O)O)C(=O)O)cc3)c2c(=O)[nH]1 [Pemetrexed] (partner 0.2 µM)
How it was run: as §1

Linifanib + Decitabine = compound: Cc1ccc(F)c(NC(=O)Nc2ccc(-c3cccc4[nH]nc(N)c34)cc2)c1 [Linifanib] + Nc1ncn([C@H]2C[C@H](O)[C@@H](CO)O2)c(=O)n1 [Decitabine] (partner 2 µM)
How it was run: as §1

Linifanib + Linsitinib = compound: Cc1ccc(F)c(NC(=O)Nc2ccc(-c3cccc4[nH]nc(N)c34)cc2)c1 [Linifanib] + C[C@]1(O)C[C@@H](c2nc(-c3ccc4ccc(-c5ccccc5)nc4c3)c3c(N)nccn32)C1 [Linsitinib] (partner 1 µM)
How it was run: as §1

Linifanib + Foretinib = compound: Cc1ccc(F)c(NC(=O)Nc2ccc(-c3cccc4[nH]nc(N)c34)cc2)c1 [Linifanib] + COc1cc2c(Oc3ccc(NC(=O)C4(C(=O)Nc5ccc(F)cc5)CC4)cc3F)ccnc2cc1OCCCN1CCOCC1 [Foretinib] (partner 0.25 µM)
How it was run: as §1

| Cell Line | relative viability (Linifanib + Dasatinib; first compound 0.03162 µM) | relative viability (Linifanib + Dasatinib; first compound 0.1 µM) | relative viability (Linifanib + Dasatinib; first compound 0.3162 µM) | relative viability (Linifanib + Navitoclax; first compound 0.03162 µM) | relative viability (Linifanib + Navitoclax; first compound 0.1 µM) | relative viability (Linifanib + Navitoclax; first compound 0.3162 µM) | relative viability (Linifanib + Pemetrexed; first compound 0.03162 µM) | relative viability (Linifanib + Pemetrexed; first compound 0.1 µM) | relative viability (Linifanib + Pemetrexed; first compound 0.3162 µM) | relative viability (Linifanib + Decitabine; first compound 0.03162 µM) | relative viability (Linifanib + Decitabine; first compound 0.1 µM) | relative viability (Linifanib + Decitabine; first compound 0.3162 µM) | relative viability (Linifanib + Linsitinib; first compound 0.03162 µM) | relative viability (Linifanib + Linsitinib; first compound 0.1 µM) | relative viability (Linifanib + Linsitinib; first compound 0.3162 µM) | relative viability (Linifanib + Foretinib; first compound 0.03162 µM) | relative viability (Linifanib + Foretinib; first compound 0.1 µM) | relative viability (Linifanib + Foretinib; first compound 0.3162 µM) |
| --- | --- | --- | --- | --- | --- | --- | --- | --- | --- | --- | --- | --- | --- | --- | --- | --- | --- | --- |
| LC-2-ad | 0.618 | 0.871 | 0.489 | 0.48 | 0.553 | 0.429 | 0.307 | 0.293 | 0.269 | 0.759 | 0.799 | 0.836 | 0.691 | 0.851 | 0.766 | 0.905 | 0.911 | 0.904 |
| BEN | 0.318 | 0.34 | 0.316 | 0.069 | 0.203 | 0.0675 | 0.716 | 0.866 | 0.853 | 0.772 | 0.818 | 0.696 | 0.842 | 0.896 | 0.83 | 0.718 | 0.774 | 0.608 |
| NCI-H1944 | 0.204 | 0.215 | 0.216 | 1.05 | 1.05 | 0.98 | 0.678 | 0.705 | 0.675 | 0.425 | 0.449 | 0.415 | 1.09 | 1.17 | 1.14 | 0.928 | 0.889 | 0.876 |
| HCC-827 | 0.272 | 0.32 | 0.268 | 1.02 | 1.02 | 1 | 0.21 | 0.265 | 0.235 | 0.32 | 0.31 | 0.331 | 0.992 | 0.999 | 0.996 | 1.06 | 1.11 | 1.1 |
| HCC-44 | – | – | – | 1.05 | 0.956 | 0.942 | 0.624 | 0.552 | 0.613 | 0.984 | 0.862 | 0.961 | 0.741 | 0.71 | 0.664 | – | – | – |
| ChaGo-K-1 | 0.721 | 0.727 | 0.558 | 0.991 | 1.17 | 0.978 | 0.255 | 0.262 | 0.238 | 0.497 | 0.531 | 0.509 | – | – | – | 1.09 | 0.935 | 0.951 |
| NCI-H647 | 0.194 | 0.231 | 0.183 | 1.23 | 1.03 | 1.01 | 0.148 | 0.153 | 0.203 | 0.339 | 0.368 | 0.481 | 1.13 | 1.06 | 1.07 | 1.03 | 1.23 | 1.12 |
| HOP-62 | 0.672 | 0.702 | 0.701 | 1 | 1.07 | 0.859 | 0.312 | 0.261 | 0.295 | 0.194 | 0.197 | 0.2 | 1.08 | 0.896 | 0.876 | 1.14 | 1.12 | 1.02 |
| NCI-H1666 | 0.856 | 0.833 | 0.779 | 0.982 | 0.948 | 1.17 | 0.943 | 0.876 | 0.892 | 0.856 | 0.691 | 0.698 | 0.66 | 0.869 | 0.803 | 0.923 | 0.969 | 0.998 |
| SW 900 | 0.824 | 0.548 | 0.578 | – | – | – | 0.495 | 0.496 | 0.481 | 0.478 | 0.515 | 0.474 | – | – | – | 0.925 | 0.987 | 0.666 |
| PC-3 [JPC-3] | 1.04 | 1.01 | 0.972 | 0.878 | 0.826 | 0.77 | 1.03 | 1.05 | 0.94 | 0.766 | 0.792 | 0.847 | 0.971 | 0.903 | 1 | 1.05 | 0.973 | 0.993 |
| NCI-H661 | 1.07 | 0.983 | 0.871 | – | – | – | 0.932 | 0.925 | 0.904 | 0.559 | 0.626 | 0.582 | 0.505 | 0.676 | 0.467 | 1.07 | 0.978 | 0.973 |
| NCI-H2085 | 0.252 | 0.239 | 0.268 | 1.04 | 1.12 | 1.11 | 0.907 | 0.942 | 0.917 | 0.535 | 0.632 | 0.573 | 0.895 | 0.913 | 0.835 | 0.979 | 1.12 | 0.806 |
| NCI-H2126 | 0.622 | 0.718 | 0.622 | 0.836 | 0.838 | 0.816 | 0.713 | 0.689 | 0.714 | 0.58 | 0.538 | 0.575 | 0.696 | 0.731 | 0.753 | 1.22 | 1.06 | 1.2 |
| NCI-H460 | 0.577 | 0.6 | 0.508 | 1.1 | 1.45 | 1 | 0.0619 | 0.0626 | 0.0566 | 0.492 | 0.583 | 0.475 | 0.714 | 1.05 | 0.773 | 0.963 | 1.01 | 0.95 |
| NCI-H596 | 0.58 | 0.612 | 0.671 | 1.12 | 1.04 | 0.882 | 0.461 | 0.535 | 0.555 | 0.915 | 1.01 | 1.06 | 1.08 | 0.993 | 1.06 | 0.981 | 0.783 | 0.907 |
| LK-2 | 0.308 | 0.349 | 0.403 | 0.791 | 1.03 | 0.704 | 0.278 | 0.318 | 0.272 | 0.305 | 0.365 | 0.224 | 0.516 | 0.502 | 0.536 | 1.12 | 1.33 | 1.08 |
| UMC-11 | 0.42 | 0.491 | 0.466 | 0.304 | 0.41 | 0.366 | 0.763 | 0.772 | 0.787 | 0.585 | 0.562 | 0.581 | 0.921 | 1.06 | 0.911 | 0.986 | 1.16 | 1.04 |
